Assay results taken from patent US20090074790A1, “Methods for measuring transforming growth factor beta (TGF-beta) receptor signaling activity and uses thereof” (priority 2004, published 2009).

Tested on: human keratinocytes
Experiment: Growth of human keratinocytes (HKc/HPV16), TGFβ-induced growth arrest
Conditions: read-out: IC50 of growth inhibition of human keratinocytes, dose-dependent

Substance: TGFβ: Recombinant human TGFβ1 purchased from Austral Biologicals
- IC50: ~5 pM
